Patent US20120015923A1, “USE OF ANDROGRAPHOLIDE COMPOUNDS FOR TREATING INFLAMMATION AND AIRWAY DISORDERS” (NATIONAL UNIVERSITY OF SINGAPORE, priority 2009, published 2012)

Test system: inflammatory gene expression in lung tissues
Test: Pulmonary mRNA expression of inflammatory markers (RT-PCR)
Type: in vivo, BALB/c mice
Settings: lungs 24 hours after last OVA aerosol
Experimental: Lungs were isolated from the thoracic cavity 24 hours after the last OVA or saline challenge, and stored in RNAlater. The samples were first incubated at […] overnight for the RNAlater to permeate into the lung tissues to stabilize the RNA. The samples were then stored at −80° C. Before RNA isolation, lung tissues were thawed at […] They were then removed from the RNAlater and immersed in 1 ml Trizol solution. Then, homogenization was performed using a homogenizer (SilentCrusher M, Heidolph Elektro GmbH & Co., Kelheim, Genman). All samples were placed on ice to prevent RNA degradation. The homogenates were then centrifuged at 12,000 g for 10 min at 4° C. The clear RNA containing supernatant was then decanted, incubated for 5 min in room temperature, and 0.2 ml of chloroform was added. All tubes were shaken vigorously for 15 seconds and incubated at room temperature for 3 minutes before being centrifuged at 12,000 g for 15 min at 4° C. About 500 μl of the colourless upper aqueous layer containing RNA, was decanted. 0.5 ml of isopropanol was added and mixed for 30 sec, before being incubated at room temperature for 10 minutes. The tubes were then centrifuged at 12000 rpm for 15 min at 4° C. The supernatant was discarded and 1 ml of 75% ethanol was added to the RNA pellet. Centrifugation at 8500 rpm for 5 minutes at 4° C. was then performed to wash the pellet. The supernatant was again discarded and the washed RNA pellet was air-dried at room temperature for 10 min. The dried RNA pellet was dissolved in 100 μl of ribonuclease-free DEPC water and incubated at 55° C. for 10 minutes. The amount and purity of RNA present in the sample was quantified using the spectrophotometer (NanoDrop ND-1000 from Thermo Risher
Reverse transcription was performed to synthesize single-stranded complementary DNA (cDNA) templates from the RNA extracted. Volume containing 1 μg total RNA was calculated based on the nucleic acid concentration measured from the spectrophotometer, and was topped up to 20 μl with DEPC water. 10.58 μl of master mix was then added to each sample. Then, cDNA was synthesized from 1 μg of RNA using a multiwall thermal cycler (GeneAmp PCR system 2700 from Applied Biosystems, Foster City, Calif., USA) by bringing the reaction volume to 95° C. for 10 minutes and 42° C. for 30 minutes.
PCR amplifications were then performed using the multiwell thermal cycler on 1 μl cDNA template in a 25 μl reaction volume. The reaction volume contained 10.5 μl nuclease-free water, 0.5 μl forward primer (10 μM), 0.5 μl reverse primer (10 μM) and 12.5 μl 2×PCR master mix (50 units/ml TaqDNA polymerase, 400 μM dATP, 400 μM dGTP, 400 μM dCTP, 400 μM dTTP and 3 mM MgCl2).

Compound | ICAM-1 gene expression in lung | VCAM-1 gene expression in lung | YM1 gene expression in lung | inducible nitric oxide synthase mRNA expression in lung tissues | AMCase mRNA expression in lung tissues (DDAG 1 mg/kg) | E-selectin mRNA expression in lung tissues (DDAG 1 mg/kg) | Muc5ac mRNA expression in lung tissues (DDAG 1 mg/kg) | YKL-40 mRNA expression in lung tissues (DDAG 1 mg/kg) | Ym2 mRNA expression in lung tissues (DDAG 1 mg/kg) | COX2 mRNA expression in lung tissues (DDAG 1 mg/kg) | IL-17 mRNA expression in lung tissues (DDAG 1 mg/kg) | IL-33 mRNA expression in lung tissues (DDAG 1 mg/kg)
C=C1CC[C@@H]2[C@](C)(CO)[C@H](O)CC[C@@]2(C)[C@@H]1C/C=C1/C(=O)OC[C@H]1O [Andrographolide] | inhibition | inhibition | inhibition | attenuated | markedly down-regulated | attenuated | attenuated | markedly down-regulated | markedly down-regulated |  |  | 
C=C1CCC2C(C)(CO)C(O)CCC2(C)C1C=CC1=CCOC1=O (centres unmarked) [DDAG, 14-Deoxy-11,12-didehydroandrographolide] |  |  |  |  | strong suppression | strong suppression | strong suppression | strong suppression | strong suppression | strong suppression | strong suppression | strong suppression
